Test results published in patent US20090028804A1, “AhR mediators” (SYMRISE GmbH & Co. KG, priority 2005, published 2009).
Where two headings read alike, the source gives them in different places. One block for each compound: values may come before it.

Legend:
[1] = test system: primary mouse melanocytes; experiment: Melanin content of primary mouse melanocytes, photometric at 405 nm; type: cell-based
Protocol: The cells were removed, lysed with 0.1% Triton-X100, centrifuged and the melanin content from the lysate pellet was determined photometrically in an ELISA reader at 405 nm after cell disruption with 1M NH4OH (4 h, 85° C.). The blank reading, which contained only NH4OH, was subtracted from the absorption value. In parallel, the protein content of the lysate supernatants was determined by the Bradford method.
Semiconfluent primary mouse melanocytes (culture conditions as above) were further cultured for 7 days with 10 μM MNF. The cells were removed, lysed with 0.1% Triton-X100, centrifuged and the melanin content from the lysate pellet was determined photometrically in an ELISA reader at 405 nm after cell disruption with 1M NH4OH (4 h, 85° C.). The blank reading, which contained only NH4OH, was subtracted from the absorption value.

AhR [2] = target: T1, AhR (Homo sapiens, UniProt P35869); experiment: AhR translocation into the cell nucleus in HaCaT cells transfected with pEGFP-AhR plasmid; type: cell-based; set-up: host or cells: oral human keratinocyte cancer cells
T1 sequence (P35869 11-848): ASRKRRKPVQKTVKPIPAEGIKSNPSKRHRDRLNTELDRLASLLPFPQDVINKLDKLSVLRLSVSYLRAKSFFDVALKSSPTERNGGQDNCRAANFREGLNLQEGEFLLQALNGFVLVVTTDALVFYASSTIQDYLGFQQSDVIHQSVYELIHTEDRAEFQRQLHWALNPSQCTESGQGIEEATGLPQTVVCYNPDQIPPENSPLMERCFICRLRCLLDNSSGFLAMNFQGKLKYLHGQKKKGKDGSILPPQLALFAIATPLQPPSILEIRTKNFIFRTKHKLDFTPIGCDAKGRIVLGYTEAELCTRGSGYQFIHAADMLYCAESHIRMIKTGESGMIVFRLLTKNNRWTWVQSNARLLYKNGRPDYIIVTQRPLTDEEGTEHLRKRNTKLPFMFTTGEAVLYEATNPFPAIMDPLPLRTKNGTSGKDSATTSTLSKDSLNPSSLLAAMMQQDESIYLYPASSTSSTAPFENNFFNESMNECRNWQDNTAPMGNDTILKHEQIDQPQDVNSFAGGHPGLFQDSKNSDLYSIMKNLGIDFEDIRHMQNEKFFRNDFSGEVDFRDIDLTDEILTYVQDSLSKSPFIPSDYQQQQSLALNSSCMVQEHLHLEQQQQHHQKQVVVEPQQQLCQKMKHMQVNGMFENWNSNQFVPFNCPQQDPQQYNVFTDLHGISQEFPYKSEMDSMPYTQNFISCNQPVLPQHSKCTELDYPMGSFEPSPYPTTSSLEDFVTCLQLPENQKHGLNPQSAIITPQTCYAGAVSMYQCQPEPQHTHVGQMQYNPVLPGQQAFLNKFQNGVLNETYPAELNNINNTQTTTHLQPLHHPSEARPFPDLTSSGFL
Protocol: (§1) HaCaT keratinocytes were cultured in DMEM medium with 10% fetal calf serum. The cells were irradiated with UVB radiation in PBS (phosphate-buffered saline). For UVB irradiation, we used a TL20W/12RS lamp which contains four parallel tubes (Philips, Eindhoven, Netherlands) and emits the majority of its energy in the UVB range (290-320 nm). The emission peak of the lamp is at 310 nm. Control cells were subjected to identical treatment, but were not irradiated. In order to inhibit the AhR, the cells were treated with the test substance 1 h before irradiation.
HaCaT cells were plated out onto chambered microscope slides with a cell density of 5×10^4 cells/chamber. Some were pretreated with the test substance for 1 h. After 24 h, said cells were transfected with the pEGFP-AhR plasmid by means of the FuGene 6 transfection reagent (Roche, Mannheim, Germany) in accordance with the manufacturer's instructions After a further 24 h, transfected cells were irradiated with […] of UVB. After 40 min, the cells were fixed for 10 min with 4% paraformaldehyde and washed with PBS. The microscope slides were dried and mounted with Vectashield Mounting Medium (Vector Laboratories, Burlingame, Calif., USA). The AhR coupled to the GFP was visualized by means of a fluorescence microscope (Olympus, Hamburg, Germany) and photographed with a ColorViewXS digital camera (Olympus).

AhR [3] = target: T1, AhR; experiment: AhR translocation in primary mouse melanocytes transfected with pEGFP-AhR plasmid; type: cell-based; set-up: expressed in transfected cells; host or cells: primary mouse melanocytes; settings: in the presence and absence of benzo[a]pyrene
Protocol: Primary mouse melanocyte cells were plated out onto chambered microscope slides. Individual chambers were treated for 1 h with the test substances. After 24 h, the cells were transfected with the pEGFP-AhR plasmid. After a further 40 min, the cells were fixed. The microscope slides were evaluated by fluorescence microscopy. Translocation of the AhR, which is coupled to the GFP and thus fluoresces green, from the cytoplasm into the cell nucleus is visible.

[4] = Photostability on irradiation with UVB radiation; type: physicochemical; settings: photostable = no more than 10 mol % converted on UVB (40 W/m^2) for 2 hours
Protocol: For the purposes of the present invention, a photostable substance is one which, on irradiation with UVB radiation (40 W/m^2) for 2 hours, is no more than 10 mol % converted into one or more other substances. All-trans-retinoic acid, for example, is accordingly not a preferred AhR antagonist, as this substance is photolabile.

MMP-1 = settings: cited from earlier work
AhR [5] = target: T1, AhR; set-up: host or cells: oral human keratinocyte cancer cells; settings: cited from earlier work
CYP1A1 = experiment: UVB-induced CYP1A1 induction in HaCaT keratinocytes, real time RT-PCR; type: cell-based, human
Protocol: as §1
HaCaT cells were irradiated with 100 J/m^2 of UVB. Some cells were pretreated with the test substance 1 h before irradiation. After 4 h, the RNA was prepared using the RNeasy kit (Qiagen, Hilden, Germany) in accordance with the manufacturer's instructions. Reverse transcription was carried out as described (Arch. Toxicol (2005) PMID 16205913). PCR fragments were amplified by means of real-time PCR in a LightCycler (Roche, Mannheim, Germany). The PCR mix was made up of 1/10 volume of QuantiTec® SYBR Green PCR Master Mixes F (Qiagen, Hilden, Germany), 0.5 μM of the particular primer, 2 μl of cDNA and DEPC-treated (diethyl pyrocarbonate-treated) H2O in a final volume of 20 μl. […] PCR conditions were as follows: 40 cycles of 15 sec 94° C. for denaturation, 25 sec 60° C. for primer attachment, 30 sec 72° C. for extension and 2 sec 72° C. for fluorescence measurement. […] The PCR products were quantified by means of a fragment-specific standard curve and analysis with LightCycler Software 3. […]
HaCaT cells were irradiated with 100 J/m^2 of UVB. […] The PCR mix was made up of 1/10 volume of QuantiTect® SYBR Green PCR Master Mixes (Qiagen, Hilden, Germany), 0.5 μM of the particular primer, 2 μl of cDNA and DEPC-treated (diethyl pyrocarbonate-treated) H2O in a final volume of 20 μl. […] PCR conditions were as follows: 40 cycles of 15 sec 94° C. for denaturation, 25 sec 60° C. for primer attachment, 30 sec 72° C. for extension and 2 sec 72° C. for fluorescence measurement. […]

AhR [6] = target: T1, AhR; settings: human breast epithelium cells; cited from earlier work
AhR [7] = target: T1, AhR; settings: human breast cancer cell line MCF-7; cited from earlier work
AhR [8] = target: T1, AhR; settings: human liver cancer cell line HepG2; cited from earlier work
[9] = in the absence of UVB radiation

- AhR translocation into the cell nucleus (AhR [2]; HaCaT, in the presence and absence of UVB light): inhibited AhR translocation
- AhR translocation into the cell nucleus (AhR [3]): inhibited AhR translocation
SMILES: COc1cc(-c2cc(=O)c3ccccc3o2)ccc1[N+](=O)[O-] [3-methoxy-4-nitroflavone]
- melanin content versus untreated cells ([1]; 10 μM, 7 days, p<0.05 (FIG. 4)): significantly less melanin

- photostability [4]: photolabile
SMILES: CC1=C(/C=C/C(C)=C/C=C/C(C)=C/C(=O)O)C(C)(C)CCC1 [All-trans-retinoic acid]
- TCDD-induced expression of MMP-1 (MMP-1): enhancing TCDD-induced expression of MMP-1
- AhR activity (AhR [5]; in the absence of TCDD): without influencing AhR activity
- TCDD-induced AhR activation (AhR [5]; normal human keratinocytes): inhibits TCDD-induced AhR activation

- CYP1A1 inhibition in the presence of UVB light (CYP1A1; 0.0001 wt. %, HaCaT, 100 J/m^2 UVB, relative to control (PBS without test substances with 0.1% DMSO, UVB-irradiated)): 20%
- induction of CYP1A1 as a result of AhR activation in the presence of UVB light (CYP1A1; HaCaT, UVB light): inhibited induction of CYP1A1
- induction of an AhR-inducible gene, in particular CYP1A1, by the compound itself (CYP1A1; [9]): does not itself bring about induction
- translocation of AhR from the cytoplasm into the cell nucleus induced by the compound itself (AhR [2]; [9]): do not induce translocation of AhR
SMILES: C/C=C/c1cc(OC)c2c(c1)C(C)C(c1ccc(O)c(OC)c1)O2 (stereo not drawn) [Compound (X)]

SMILES: O=Cc1c2[nH]c3ccccc3c2cc2[nH]c3ccccc3c12 [FICZ, formylindolo(3,2b)carbazole]
- melanin content versus untreated cells ([1]; 2 days with UVB-irradiated 50 mM tryptophan solution containing FICZ, p<0.05 (FIG. 3)): significantly more melanin
- AhR translocation into the cell nucleus (AhR [3]): stimulated AhR translocation

SMILES: O=C1c2ccccc2-c2n[nH]c3cccc1c23 [anthra[1,9-cd]pyrazol-6(2H)-one]
- action of the AhR agonist TCDD (AhR [6]): capable of inhibiting the action

SMILES: O=c1cc(-c2ccc(O)c(O)c2)oc2cc(O)cc(O)c12 [luteolin]
- action of AhR (AhR [7]): has no effect
- action of AhR (AhR [8]): acts as an AhR inhibitor

SMILES: O=c1c(O)c(-c2ccc(O)c(O)c2)oc2cc(O)cc(O)c12 [quercetin]
- action of AhR (AhR [7]): prevents the action of AhR
- action of AhR (AhR [8]): has no effect
